Data from ChEMBL document CHEMBL5291721, “A preclinical secondary pharmacology resource illuminates target-adverse drug reaction associations of marketed drugs” (Nat Commun, 2023).

Experiments:
Glucocorticoid receptor [1] = molecular target: T1, Glucocorticoid receptor (Homo sapiens, UniProt P04150); type: functional
T1 sequence (P04150 whole entry): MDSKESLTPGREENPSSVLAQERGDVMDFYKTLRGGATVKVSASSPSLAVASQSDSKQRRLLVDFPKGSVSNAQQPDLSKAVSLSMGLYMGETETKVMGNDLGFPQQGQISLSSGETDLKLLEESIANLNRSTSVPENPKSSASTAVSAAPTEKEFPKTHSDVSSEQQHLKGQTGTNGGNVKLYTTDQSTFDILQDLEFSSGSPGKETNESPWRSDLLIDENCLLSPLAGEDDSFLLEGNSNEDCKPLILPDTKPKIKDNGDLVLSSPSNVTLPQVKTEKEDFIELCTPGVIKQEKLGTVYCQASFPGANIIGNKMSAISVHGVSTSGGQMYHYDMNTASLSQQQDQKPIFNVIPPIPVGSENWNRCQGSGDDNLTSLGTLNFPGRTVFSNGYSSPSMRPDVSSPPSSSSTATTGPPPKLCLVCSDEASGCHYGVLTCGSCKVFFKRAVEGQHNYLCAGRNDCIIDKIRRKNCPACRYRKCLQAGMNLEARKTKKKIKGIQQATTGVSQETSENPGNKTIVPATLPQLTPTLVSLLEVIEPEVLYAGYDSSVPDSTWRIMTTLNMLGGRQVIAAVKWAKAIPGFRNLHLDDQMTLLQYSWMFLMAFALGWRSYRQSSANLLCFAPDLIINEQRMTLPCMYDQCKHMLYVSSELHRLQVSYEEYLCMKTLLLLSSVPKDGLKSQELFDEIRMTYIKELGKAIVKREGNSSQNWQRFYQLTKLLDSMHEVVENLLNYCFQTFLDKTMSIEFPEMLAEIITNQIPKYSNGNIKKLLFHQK

Estrogen receptor = molecular target: T2, Estrogen receptor (Homo sapiens, UniProt P03372); type: functional
T2 sequence (P03372 whole entry): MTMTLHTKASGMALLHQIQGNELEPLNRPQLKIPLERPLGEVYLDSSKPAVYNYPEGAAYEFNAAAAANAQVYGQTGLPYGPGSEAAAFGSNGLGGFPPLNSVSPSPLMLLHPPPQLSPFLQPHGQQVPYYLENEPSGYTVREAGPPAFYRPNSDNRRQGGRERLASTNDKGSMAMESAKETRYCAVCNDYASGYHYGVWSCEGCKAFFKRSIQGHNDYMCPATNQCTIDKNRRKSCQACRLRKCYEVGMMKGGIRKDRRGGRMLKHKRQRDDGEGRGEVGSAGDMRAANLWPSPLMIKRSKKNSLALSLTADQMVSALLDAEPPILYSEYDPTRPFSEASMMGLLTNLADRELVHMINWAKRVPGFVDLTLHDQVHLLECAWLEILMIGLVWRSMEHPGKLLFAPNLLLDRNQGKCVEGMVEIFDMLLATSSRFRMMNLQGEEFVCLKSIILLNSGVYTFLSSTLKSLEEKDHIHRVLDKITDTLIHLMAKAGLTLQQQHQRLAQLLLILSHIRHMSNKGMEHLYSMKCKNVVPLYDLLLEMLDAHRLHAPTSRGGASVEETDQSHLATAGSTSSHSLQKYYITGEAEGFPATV

Glucocorticoid receptor [2] = molecular target: T1, Glucocorticoid receptor; type: functional; remark: listed apart in the source
[3] = molecular target: 5-hydroxytryptamine receptor 5A (Homo sapiens, UniProt P47898)
[4] = molecular target: T3, Type-1 angiotensin II receptor (Homo sapiens, UniProt P30556)
T3 sequence (P30556 whole entry): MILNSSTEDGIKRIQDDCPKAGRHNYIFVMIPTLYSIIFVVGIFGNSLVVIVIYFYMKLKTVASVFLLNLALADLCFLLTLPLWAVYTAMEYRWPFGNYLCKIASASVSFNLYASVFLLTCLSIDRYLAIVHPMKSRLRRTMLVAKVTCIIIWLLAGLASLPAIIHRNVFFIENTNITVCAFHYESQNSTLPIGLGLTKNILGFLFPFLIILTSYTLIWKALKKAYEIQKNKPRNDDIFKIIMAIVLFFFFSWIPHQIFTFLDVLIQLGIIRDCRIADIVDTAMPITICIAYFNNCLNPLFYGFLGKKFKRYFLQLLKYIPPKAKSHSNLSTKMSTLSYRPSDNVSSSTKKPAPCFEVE

[5] = molecular target: T4, Muscarinic acetylcholine receptor M4 (Homo sapiens, UniProt P08173)
T4 sequence (P08173 whole entry): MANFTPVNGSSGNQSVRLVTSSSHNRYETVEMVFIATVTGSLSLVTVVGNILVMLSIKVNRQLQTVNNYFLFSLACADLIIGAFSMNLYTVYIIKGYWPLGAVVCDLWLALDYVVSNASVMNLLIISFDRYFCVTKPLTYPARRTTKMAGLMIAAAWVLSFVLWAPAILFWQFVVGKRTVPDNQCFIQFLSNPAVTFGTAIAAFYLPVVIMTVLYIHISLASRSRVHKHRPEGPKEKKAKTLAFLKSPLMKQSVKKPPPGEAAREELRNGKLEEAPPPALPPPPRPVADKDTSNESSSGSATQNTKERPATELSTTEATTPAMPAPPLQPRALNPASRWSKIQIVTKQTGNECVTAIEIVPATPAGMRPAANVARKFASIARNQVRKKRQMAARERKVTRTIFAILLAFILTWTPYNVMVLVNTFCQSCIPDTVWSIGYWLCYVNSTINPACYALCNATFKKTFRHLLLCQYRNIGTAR

Substance-K receptor = molecular target: T5, Substance-K receptor (Homo sapiens, UniProt P21452)
T5 sequence (P21452 whole entry): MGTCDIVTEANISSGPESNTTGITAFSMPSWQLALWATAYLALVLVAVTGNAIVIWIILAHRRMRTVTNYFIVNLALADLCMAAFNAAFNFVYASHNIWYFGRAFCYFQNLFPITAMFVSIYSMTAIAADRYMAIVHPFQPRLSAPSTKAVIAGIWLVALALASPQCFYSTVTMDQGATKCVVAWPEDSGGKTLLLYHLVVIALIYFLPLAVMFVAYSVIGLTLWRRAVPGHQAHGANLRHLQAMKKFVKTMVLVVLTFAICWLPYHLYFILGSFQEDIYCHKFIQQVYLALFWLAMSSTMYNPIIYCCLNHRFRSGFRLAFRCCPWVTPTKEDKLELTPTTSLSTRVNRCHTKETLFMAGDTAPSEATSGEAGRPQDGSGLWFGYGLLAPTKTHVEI

[6] = molecular target: Rod cGMP-specific 3',5'-cyclic phosphodiesterase subunit alpha (Homo sapiens, UniProt P16499); type: functional
[7] = molecular target: Hydroxycarboxylic acid receptor 2 (Homo sapiens, UniProt Q8TDS4)
D(1A) dopamine receptor = D(1A) dopamine receptor (Homo sapiens, UniProt P21728)
Also: assay procedure not described here.

Sequence of Hydroxycarboxylic acid receptor 2 (Q8TDS4 whole entry): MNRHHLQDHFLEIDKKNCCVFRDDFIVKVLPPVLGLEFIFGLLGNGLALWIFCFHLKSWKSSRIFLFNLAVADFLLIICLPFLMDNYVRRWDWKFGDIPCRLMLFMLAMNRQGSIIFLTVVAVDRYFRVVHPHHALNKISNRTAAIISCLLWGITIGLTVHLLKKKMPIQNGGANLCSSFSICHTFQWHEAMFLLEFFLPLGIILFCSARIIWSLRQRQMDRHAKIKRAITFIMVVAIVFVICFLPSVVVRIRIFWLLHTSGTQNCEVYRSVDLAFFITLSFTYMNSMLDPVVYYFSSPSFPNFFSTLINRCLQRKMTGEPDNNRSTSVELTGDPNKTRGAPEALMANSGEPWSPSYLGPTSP
Sequence of D(1A) dopamine receptor (P21728 whole entry): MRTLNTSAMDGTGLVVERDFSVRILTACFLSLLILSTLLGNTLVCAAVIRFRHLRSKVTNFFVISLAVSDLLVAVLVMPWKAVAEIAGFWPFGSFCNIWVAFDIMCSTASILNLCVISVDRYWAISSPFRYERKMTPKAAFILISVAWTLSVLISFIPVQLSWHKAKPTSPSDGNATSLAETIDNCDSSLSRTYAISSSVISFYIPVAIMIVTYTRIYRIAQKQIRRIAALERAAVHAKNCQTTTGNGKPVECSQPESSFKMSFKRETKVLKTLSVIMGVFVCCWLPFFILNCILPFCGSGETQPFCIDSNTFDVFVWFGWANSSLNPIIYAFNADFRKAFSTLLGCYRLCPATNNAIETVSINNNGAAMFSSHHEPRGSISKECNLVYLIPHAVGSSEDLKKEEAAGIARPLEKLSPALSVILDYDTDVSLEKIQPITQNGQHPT
Sequence of Rod cGMP-specific 3',5'-cyclic phosphodiesterase subunit alpha (P16499 whole entry): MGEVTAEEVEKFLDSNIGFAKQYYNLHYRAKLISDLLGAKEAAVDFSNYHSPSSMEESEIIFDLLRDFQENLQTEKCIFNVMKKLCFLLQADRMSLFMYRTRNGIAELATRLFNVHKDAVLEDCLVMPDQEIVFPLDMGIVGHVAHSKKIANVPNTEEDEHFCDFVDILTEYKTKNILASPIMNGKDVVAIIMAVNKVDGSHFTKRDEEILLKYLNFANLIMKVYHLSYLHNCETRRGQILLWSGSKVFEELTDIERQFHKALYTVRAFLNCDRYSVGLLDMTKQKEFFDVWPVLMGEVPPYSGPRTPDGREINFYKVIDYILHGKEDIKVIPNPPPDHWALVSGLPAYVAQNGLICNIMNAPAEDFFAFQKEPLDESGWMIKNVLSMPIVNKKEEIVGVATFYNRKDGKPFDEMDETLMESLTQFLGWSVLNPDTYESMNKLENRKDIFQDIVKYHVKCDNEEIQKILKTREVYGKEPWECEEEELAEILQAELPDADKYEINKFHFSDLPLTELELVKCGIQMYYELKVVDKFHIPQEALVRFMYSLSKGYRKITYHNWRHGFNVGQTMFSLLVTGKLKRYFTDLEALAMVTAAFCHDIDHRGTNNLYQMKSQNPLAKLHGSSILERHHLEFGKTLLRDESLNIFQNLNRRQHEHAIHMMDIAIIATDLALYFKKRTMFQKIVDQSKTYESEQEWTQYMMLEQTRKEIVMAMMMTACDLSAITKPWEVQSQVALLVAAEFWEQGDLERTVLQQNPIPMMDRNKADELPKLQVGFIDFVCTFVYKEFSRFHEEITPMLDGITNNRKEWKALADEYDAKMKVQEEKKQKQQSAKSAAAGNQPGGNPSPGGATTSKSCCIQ
Sequence of 5-hydroxytryptamine receptor 5A (P47898 whole entry): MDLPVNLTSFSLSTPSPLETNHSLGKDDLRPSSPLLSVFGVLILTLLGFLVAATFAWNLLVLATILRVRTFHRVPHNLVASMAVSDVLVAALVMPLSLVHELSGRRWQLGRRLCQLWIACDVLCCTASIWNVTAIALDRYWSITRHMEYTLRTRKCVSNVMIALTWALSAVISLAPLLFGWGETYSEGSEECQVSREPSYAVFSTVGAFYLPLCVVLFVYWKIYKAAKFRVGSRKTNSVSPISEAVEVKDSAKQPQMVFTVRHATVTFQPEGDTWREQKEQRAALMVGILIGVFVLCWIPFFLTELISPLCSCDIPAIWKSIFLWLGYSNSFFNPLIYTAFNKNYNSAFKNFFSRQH

CC(=O)O[C@H]1CC[C@@]2(C)C(=CC[C@@H]3[C@@H]2CC[C@]2(C)C(c4cccnc4)=CC[C@@H]32)C1 [ABIRATERONE ACETATE]
AC50 (Glucocorticoid receptor [1]): > 30 µM | AC50 (Estrogen receptor): > 30 µM | AC50 (Glucocorticoid receptor [2]): > 30 µM

CCCCc1ncc(/C=C(\Cc2cccs2)C(=O)O)n1Cc1ccc(C(=O)O)cc1 [EPROSARTAN]
AC50 [3]: > 10 µM | AC50 [4]: 0.0042 µM | AC50 [5]: > 10 µM | AC50 (Substance-K receptor): > 10 µM | AC50 [6]: > 10 µM

CCCc1nc(C(C)(C)O)c(C(=O)OCc2oc(=O)oc2C)n1Cc1ccc(-c2ccccc2-c2nnn[nH]2)cc1 [OLMESARTAN MEDOXOMIL]
AC50 [4]: 0.0017 µM

N#Cc1ccc([C@H]2CCc3cncn32)c(F)c1 [OSILODROSTAT]
AC50 [3]: > 10 µM | AC50 [5]: > 10 µM | AC50 (Substance-K receptor): > 10 µM | AC50 [6]: > 10 µM

CCCN(CCC)C(=O)C(CCC(=O)O)NC(=O)c1ccccc1 (stereo not given) [PROGLUMIDE]
AC50 [7]: > 10 µM

CN1C(=O)C(O)N=C(c2ccccc2)c2cc(Cl)ccc21 (stereo not given) [TEMAZEPAM]
AC50 [7]: > 10 µM

C/C(O)=C(\C#N)C(=O)Nc1ccc(C(F)(F)F)cc1 [TERIFLUNOMIDE]
AC50 (Glucocorticoid receptor [1]): > 10 µM | AC50 (Estrogen receptor): > 30 µM | AC50 (Glucocorticoid receptor [2]): > 30 µM

CN1CCN(CC/C=C2/c3ccccc3Sc3ccc(S(=O)(=O)N(C)C)cc32)CC1 [THIOTHIXENE]
AC50 (D(1A) dopamine receptor): 0.019 µM

C=CCN1CCCC1CNC(=O)c1cc(S(N)(=O)=O)cc(OC)c1OC (stereo not given) [VERALIPRIDE]
AC50 (D(1A) dopamine receptor): 0.013 µM
